Measurements reported in patent US20060069157A1, “Method of ameliorating or abrogating the effects of a neurodegenerative disorder, such as Huntington's disease, by sodium butyrate chemotherapy” (U.S. DEPARTMENT OF VETERANS AFFAIRS, priority 2004, published 2006).
“Also recorded” adds a separate entry of the source. Marks after values point to notes of the source that are not given here.

Columns and labels:
[1] = tested on: Drosophila model of HD; conditions: Drosophila model of HD (Steffan 2001); cited from earlier work
[2] = tested on: Sp1; conditions: wild type B6CBA mice at 8 weeks of age after 2 weeks of treatment (Ryu, 2003a); cited from earlier work
[3] = tested on: MKP-1, α-globin, β-globin, preproenkephalin mRNA; assay: Real-time PCR of brain mRNAs; type: in vivo, mouse; conditions: Striatum, percentage of untreated R6/2, normalized to β-actin
Protocol: Real-time PCR: Reverse transcription of 1 Êg total RNA was conducted with a SuperScript™ First-Strand Synthesis System for RT-PCR (Invitrogen) using random hexamer primers per the manufacturer's instructions. Quantitative real-time PCR studies utilized a Bio-Rad iCycler to follow the amplification of cDNA products by using SYBR_ Green PCR Master Mix (Applied Biosystems) through 50 PCR cycles (95_C for 30 s, 57_C for 1 min, 72_C for 1.5 min). Specific amplification of the target sequences was determined by melt curve analysis and DNA sequencing. Primer pair sequences were as follows: Preproenkephalin (XM—131313) GTGTCCAGGCCCGAGTTC and […]; MKP-1 (NM_013642) […] and […]; _-globin (NM_008218) CCACCCTGCCGATTTCA and CCGCAGMGGCAGCTTAAC; _-globin (NM_008220) […] and CCCAGCACAATCACGATCA; _-actin (X03672) AGGTATCCTGACCCTGAAG and […]. Expression of the mRNAs of interest was calculated using the equation: V=(1+E reference)(C t reference)/(1+E target) (C t target) to correct for potential differences in RNA input and PCR primer efficiencies (Livak and Schmittgen, 2001). V=relative value of target gene normalized to reference (_-actin), E=primer efficiency, C t=threshold crossing cycle number. Differences between genotype and treatment groups were assessed using an unpaired, two-tailed Student's t-test.

[4] = tested on: 3-NP induced striatal lesions in R6/2 mice; assay: 3-Nitropropionic acid (3-NP) striatal toxicity in R6/2 mice; type: in vivo, mouse
Protocol: 3-Nitropropionic Acid Administration: At six weeks, groups of 10 R6/2 mice were treated with daily 1.2 g/kg sodium butyrate or PBS via intraperitoneal injections for two weeks. At the start of week two, 3-nitropropionic acid (3-NP) (Sigma, St. Louis, Mo.) was dissolved in PBS (pH adjusted to 7.4), made fresh daily, and injected intraperitoneally 9 times at 12 hrs intervals (75 mg/kg) in R6/2 mice. The mice were euthanized 8-10 hrs after the last 3-NP injection, deeply anesthetized and transcardially perfused with buffered 4% paraformaldehyde and processed for histopathologic evaluation. Glycerol cryoprotected brains were frozen sectioned at 50 Êm, stained with cresyl violet, and quantitative analysis of lesion volumes was performed in serial sections as described below.
Stereology/Quantitation: Serial-cut coronal tissue-sections beginning from the most rostral segment of the neostriatum to the level of the anterior commissure (Inter aural 5.34 mm/Bregma 1.54 mm to Inter aural 3.7 mm/Bregma −0.10 mm), were used for huntingtin aggregate analysis. Unbiased stereological counts of huntingtin-positive aggregates ([…]) were obtained from the neostriatum in 10 mice each from sodium butyrate-treated (1.2 g/kg) and PBS-treated R6/2 mice at 90 days using Neurolucida Stereo Investigator software (Microbrightfield, Colchester, Vt.). The total areas of the rostral neostriatum were defined in serial sections in which counting frames were randomly sampled. The optical dissector method was employed estimating the number of huntingtin-positive aggregates. Striatal neuron areas were analyzed by microscopic videocapture using a Windows-based image analysis system for area measurement (Optimas, Bioscan Incorporated, Edmonds, Wash.). The software automatically identifies and measures profiles. All computer identified cell profiles were manually verified as neurons and exported to Microsoft Excel. Cross-sectional areas were analyzed using Statview.

[5] = tested on: R6/2 transgenic mouse model of HD; assay: Survival of R6/2 mice, intraperitoneal dose response; type: in vivo
Excerpt: Animals: The Bedford VA Medical Center laboratories have maintained a stable colony of R6/2 HD mice for over 6 years, with founders originating from Jackson Laboratories (Bar Harbor, Me., USA). Male transgenic HD mice of the R6/2 strain were bred with females from their background strain (B6CBAFI/J). Offspring were genotyped using a PCR assay on tail DNA. We have standardized criteria to ensure homogeneity of the cohorts within the testing groups (Dedeoglu et al., 2002). Mice were randomized from 28 litters all within 3 days from the same ‘f’ generation. Body weights were taken at 20 days and mice were equally distributed according to weight within each cohort. Mice under 7 g at 20 days were excluded from the experiments. The animals were housed 5/cage under standard conditions with free access to water and food. The mice were handled under the same conditions by one investigator. Since we have not observed gender differences in survival in the R6/2 transgenic HD mouse model (Ferrante et al., 2000), female mice were used in the experimental paradigms. These experiments were carried out in accordance with the NIH Guide for the Care and Use of Laboratory Animals, and were approved by both the Veterans Administration and Boston University Animal Care Committees.
Intraperitoneal Dosing: Based upon previous studies (Egorin et al., 1999), a dose response study was performed, treating groups of wild type mice (n=10) and littermate R6/2 mice (n=20) with 100, 200, 400, 600, 1,200, 5,000, and 10,000 mg/kg daily intraperitoneal injection (100 Êl) of sodium butyrate (Acros Organics/Fisher Scientific) dissolved in PBS and made fresh daily. […]
Survival: R6/2 mice were assessed for morbidity and mortality twice daily, mid morning and late afternoon. Motor performance and ability to feed were closely monitored and used as the basis for determining when to euthanize the mice. […] In addition, deaths occurred overnight and were recorded the following morning. […]
Statistics: The data are expressed as the mean+standard error of the mean. […] Survival data was analyzed by the Kaplan-Meier survival curves.

CCCC(=O)[O-].[Na+] [sodium butyrate]
photoreceptor neuron degeneration and lethality [1]: slow photoreceptor neuron degeneration and ameliorate lethality
Sp1 acetylation [2]: significantly augmented
PCR, NaBu Txd R6/2 vs R6/2 ([3]; MKP-1 mRNA, p<0.05): 181%^a
PCR, NaBu Txd R6/2 vs R6/2 ([3]; Preproenkephalin mRNA): 101%
PCR, NaBu Txd R6/2 vs R6/2 ([3]; α-globin mRNA, p<0.01): 206%^c
PCR, NaBu Txd R6/2 vs R6/2 ([3]; β-globin mRNA, p<0.02): 215%^b
mice with bilateral striatal lesions ([4]; 1.2 g/kg/d i.p. two weeks, 3-NP in second week, 3-NP/PBS: seven of ten): two of ten
neuroprotection from 3-NP striatal damage ([4]; 1.2 g/kg/d i.p. two weeks, 3-NP in second week, vs 3-NP and PBS-treated R6/2): prevented 3-NP striatal-induced damage; also recorded: marked neuroprotection; also recorded: nearly complete protection
reduction in lesion volume ([4]; 1.2 g/kg/d i.p., vs 3-NP/PBS-treated R6/2 mice): 73.3%
extension of survival ([5]; 1,200 mg/kg/d i.p. from day 21, vs PBS-treated R6/2 mice, p<0.001): 20.8%
time at which mice became moribund and died ([5]; 5 g/kg/d i.p., treatment initiated at 21 days): 1 to 11 days
morbidity and mortality at onset of treatment ([5]; 5,000 and 10,000 mg/kg/d i.p.): marked rapidly-coursing morbidity and mortality
